Assay results from PMC9437101, “Curcumin-based-fluorescent probes targeting ALDH1A3 as a promising tool for glioblastoma precision surgery and early diagnosis” (Communications Biology, 2022).

Tests used:
[1] = Solubility in physiological buffer; assay type: physicochemical; settings: among all five molecules
Excerpt: All five fluorescent compounds were firstly characterized for their solubility in physiological buffer and for their absorbance values. We then performed a 3D analysis using a TECAN SPARK to simultaneously evaluate the excitation and the emission wavelengths, that were supposed to be similar to the curcumin ones[48]. […] For these reasons, we decided to continue the biochemical characterization on Probe 10 and 11 using the selected parameters (Fig. 2). The fluorescent signal changes for both molecules upon binding to the target, were firstly evaluated with recombinant human ALDH1A3. […] To better characterized our fluorescent compounds, we tested their potential cross-reactivity toward the other two isoforms of the ALDH1A subfamily. […] In addition, a wide range of biologically relevant analytes were tested at a concentration of 100 μM in complex with a fixed concentration of 10 μM of the probe (either probe 10 or probe 11), to make sure that no potential off-target signals could affect the analysis. More specifically, we checked if there were abnormal fluorescence signals that could have been contributed by the presence of biologically relevant compounds, (e.g., biologically relevant amino acids), to buffers and molecules commonly used in experimental procedures.

ALDH1A1 = target: T1, ALDH1A1 (Homo sapiens, UniProt P00352); experiment: Kd evaluation by fluorescence emission assay; assay type: binding; settings: probe 10 μM, ALDH1A1 100 to 1.1719 μM
T1 construct: E. coli BL21 (DE3) were transformed with the full-length expression vector of each isoform; His-tag; made in house; host or cells: E. coli BL21 (DE3)
T1 sequence (P00352 1-501): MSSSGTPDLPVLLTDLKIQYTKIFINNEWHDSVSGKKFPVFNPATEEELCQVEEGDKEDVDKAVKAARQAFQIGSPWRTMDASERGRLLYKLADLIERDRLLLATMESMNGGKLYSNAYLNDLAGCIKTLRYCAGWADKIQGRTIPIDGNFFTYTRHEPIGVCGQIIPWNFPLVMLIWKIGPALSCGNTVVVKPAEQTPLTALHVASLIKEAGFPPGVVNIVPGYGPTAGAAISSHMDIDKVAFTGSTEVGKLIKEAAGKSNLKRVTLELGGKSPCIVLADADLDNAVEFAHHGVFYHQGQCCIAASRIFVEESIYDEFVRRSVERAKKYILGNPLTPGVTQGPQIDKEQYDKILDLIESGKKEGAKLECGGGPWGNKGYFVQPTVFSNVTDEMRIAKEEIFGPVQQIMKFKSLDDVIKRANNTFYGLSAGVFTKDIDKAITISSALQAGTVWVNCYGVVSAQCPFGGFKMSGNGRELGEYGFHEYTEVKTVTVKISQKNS
Procedure: (§1) To evaluate the Kd constant between the two probes and the isoenzymes ALDH1A1, ALDH1A2 and ALDH1A3A we performed a fluorescence emission assay. We used a Tecan Spark with Greiner Bio-One 96-UV-Transparent Microplates. A single reaction was performed in a total volume of 100 μl per well containing 20 mM Tris HCl pH 8.0, 1 mM β-mercaptoethanol, 150 mM KCl, 500 μM NAD^+ and 10 μM fluorescent probe with a 5% DMSO final concentration, in the presence of different ALDH1As concentrations, from 100 μM to 1.1719 μM. Each reaction mix was preincubated for 10 min at 25 °C before the analysis. The obtained raw data were analyzed using GraphPad to calculate Kd values.

ALDH1A2 = target: T2, ALDH1A2 (Homo sapiens, UniProt O94788); experiment: Kd evaluation by fluorescence emission assay; assay type: binding; settings: probe 10 μM, ALDH1A2 100 to 1.1719 μM
T2 construct: E. coli BL21 (DE3) were transformed with the full-length expression vector of each isoform; His-tag; made in house; host or cells: E. coli BL21 (DE3)
T2 sequence (O94788 1-518): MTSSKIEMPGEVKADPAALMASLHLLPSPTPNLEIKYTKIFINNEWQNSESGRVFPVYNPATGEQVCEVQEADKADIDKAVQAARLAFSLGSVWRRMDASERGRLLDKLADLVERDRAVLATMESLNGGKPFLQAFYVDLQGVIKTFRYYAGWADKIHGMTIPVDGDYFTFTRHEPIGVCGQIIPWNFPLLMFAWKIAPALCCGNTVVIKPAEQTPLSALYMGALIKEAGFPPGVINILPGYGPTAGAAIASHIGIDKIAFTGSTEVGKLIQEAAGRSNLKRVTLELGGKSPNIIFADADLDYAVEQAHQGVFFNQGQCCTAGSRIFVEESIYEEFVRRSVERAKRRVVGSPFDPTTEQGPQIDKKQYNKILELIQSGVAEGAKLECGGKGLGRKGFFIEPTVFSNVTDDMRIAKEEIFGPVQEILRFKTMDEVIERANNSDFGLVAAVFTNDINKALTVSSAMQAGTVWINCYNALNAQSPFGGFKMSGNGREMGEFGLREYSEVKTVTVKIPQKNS
Procedure: as §1

ALDH1A3 = target: T3, ALDH1A3 (Homo sapiens, UniProt P47895); experiment: Kd evaluation by fluorescence emission assay; assay type: binding; settings: probe 10 μM, ALDH1A3 100 to 1.1719 μM
T3 construct: E. coli BL21 (DE3) were transformed with the full-length expression vector of each isoform; His-tag; made in house; host or cells: E. coli BL21 (DE3)
T3 sequence (P47895 1-512): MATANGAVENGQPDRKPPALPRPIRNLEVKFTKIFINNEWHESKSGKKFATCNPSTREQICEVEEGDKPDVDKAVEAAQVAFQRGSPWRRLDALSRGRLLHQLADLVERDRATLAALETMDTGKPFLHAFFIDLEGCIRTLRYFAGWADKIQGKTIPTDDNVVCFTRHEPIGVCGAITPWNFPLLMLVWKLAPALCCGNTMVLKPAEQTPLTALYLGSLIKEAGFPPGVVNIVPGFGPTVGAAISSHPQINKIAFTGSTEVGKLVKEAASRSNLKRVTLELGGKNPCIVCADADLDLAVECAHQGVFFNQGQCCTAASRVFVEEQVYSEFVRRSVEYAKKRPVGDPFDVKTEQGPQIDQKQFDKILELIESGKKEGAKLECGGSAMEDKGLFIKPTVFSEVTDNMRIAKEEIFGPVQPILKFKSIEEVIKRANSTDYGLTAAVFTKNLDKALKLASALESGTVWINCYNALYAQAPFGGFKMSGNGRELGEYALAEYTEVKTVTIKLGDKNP
Procedure: as §1

Row | SMILES | solubility in physiological buffer [1] | Kd (ALDH1A1) [µM] | Kd (ALDH1A2) [µM] | Kd (ALDH1A3) [µM]
1 | CCOC(=O)Cn1cc(COc2ccc(/C=C/C(=O)/C=C(O)/C=C/c3ccc(O)c(OC)c3)cc2OC)nn1 [Probe 11] | highest solubility | 42.4 | 125 | 84.3
2 | COc1cc(/C=C/C(O)=C/C(=O)/C=C/c2ccc(OCc3cn(CCOc4ccc(C=O)cc4)nn3)c(OC)c2)ccc1O [Probe 10] | highest solubility | 31.1 | 36.9 | 38.2
